Key:
Assay type in all cases: binding
[1] = target: T1, human serotonin transporter (hSERT) (Homo sapiens, UniProt P31645); experiment: Screening for human serotonin transporter (hSERT) antagonists, scintillation proximity assay (SPA); details: competition with [3H]-Citalopram; membranes of HEK-293 cells expressing recombinant hSERT
T1 construct: expressed in transfected cells; Tatsumi et al. 1997
Experimental: The screening assay of this example was used to determine the affinity of ligands at the hSERT transporter by competition with [^3H]-Citalopram.
Scintillation Proximity Assay (SPA) works by bringing radioligand within close proximity to the bead's scintillant to stimulate light emission. In this assay, the receptor-containing membranes were pre-coupled to the SPA beads and the binding of the appropriate radioligand to the transporter was measured. The light emission was proportional to the amount of bound radioligand. Unbound radioligand produced no signal as a result of distant proximity to scintillant (lack of energy transfer). […]
(§1) Cell membranes were prepared using a membrane preparation buffer of 50 mM TRIS (pH 7.4). […] After a second centrifugation, the pellet was re-homogenized and brought to a final volume determined during the assay. […]
The % inhibition was calculated for each compound tested [(Compound counts per minute (CPM) at maximum concentration-Non-Specific CPM)/Total CPM*100]. […]
(§2) [formula] where max=total binding, min=non specific binding, x=concentration (M) of the tested compound and n=Hill slope. The inhibition dissociation constant (Ki) of each compound was determined according to the method of Cheng-Prusoff and then converted into negative logarithm (pKi) of the Ki.

[2] = target: T2, human norepinephrine transporter (hNET) (Homo sapiens, UniProt P23975); experiment: Screening for compounds active at human norepinephrine transporter (hNET), scintillation proximity assay (SPA); details: competition with [3H]-Nisoxetine; membranes of HEK-293 cells expressing recombinant hNET
T2 construct: expressed in transfected cells; Clone: HEK-hNET #2)
T2 sequence (P23975 whole entry): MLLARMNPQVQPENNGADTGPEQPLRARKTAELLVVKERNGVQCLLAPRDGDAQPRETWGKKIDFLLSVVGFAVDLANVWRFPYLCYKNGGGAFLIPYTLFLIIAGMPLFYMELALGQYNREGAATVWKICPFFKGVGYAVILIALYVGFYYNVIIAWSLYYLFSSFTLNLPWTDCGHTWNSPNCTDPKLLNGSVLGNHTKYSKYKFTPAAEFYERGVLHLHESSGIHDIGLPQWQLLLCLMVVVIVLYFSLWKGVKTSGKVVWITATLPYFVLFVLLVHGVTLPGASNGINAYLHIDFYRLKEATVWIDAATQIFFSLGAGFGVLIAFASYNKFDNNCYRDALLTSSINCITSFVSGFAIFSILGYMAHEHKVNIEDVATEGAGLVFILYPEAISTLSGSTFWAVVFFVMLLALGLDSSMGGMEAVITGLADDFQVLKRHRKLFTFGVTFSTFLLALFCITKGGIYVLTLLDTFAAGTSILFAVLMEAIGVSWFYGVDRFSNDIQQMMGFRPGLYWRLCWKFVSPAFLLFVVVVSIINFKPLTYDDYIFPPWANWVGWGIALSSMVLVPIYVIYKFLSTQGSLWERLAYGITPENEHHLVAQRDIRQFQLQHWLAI
Experimental: This assay was used to determine the affinity of ligands for the hNET transporter by competition with [^3H]-Nisoxetine. As in the hSERT assay of the above example, receptor-containing membranes were pre-coupled to the SPA beads and the binding of the appropriate radioligand to the transporter was measured. The light emission was proportional to the amount of bound radioligand, with unbound radioligand producing no signal.
HEK-293 cells (Tatsumi et al., Eur. J. Pharmacol. 1997, 30, 249-258) stably expressing recombinant hNET (Clone: HEK-hNET #2) were maintained with media (DMEM hi glucose with 10% FBS, 300 μg/ml G418 and 2 mM L-Glutamine) and incubated at 37° C. with 5% CO2. Cells were released from culture flasks using PBS for 1-2 minutes. […]
as §1
^3[H] […] The mixtures were allowed to stand at room temperature for one hour, and were then counted on a Packard TopCount LCS, a generic SPA counting protocol settings (Energy Range: Low, Efficiency Mode: Normal, Region A: 1.50-35.00, Region B: 1.50-256.00, Count Time (min.): 0.40, Background Subtract: none, Half-Life Correction: no, Quench Indicator: tSIS, Platemap blank subtraction: No, Cross talk reduction: Off). […]

[3] = target: T3, human dopamine transporter (hDAT) (Homo sapiens, UniProt Q01959); experiment: Screening for compounds active at human dopamine transporter, scintillation proximity assay (SPA); details: competition with [3H]-Vanoxerine; HEK-293 cells expressing recombinant hDAT
T3 construct: expressed in transfected cells; Tatsumi et al. 1997
T3 sequence (Q01959 whole entry): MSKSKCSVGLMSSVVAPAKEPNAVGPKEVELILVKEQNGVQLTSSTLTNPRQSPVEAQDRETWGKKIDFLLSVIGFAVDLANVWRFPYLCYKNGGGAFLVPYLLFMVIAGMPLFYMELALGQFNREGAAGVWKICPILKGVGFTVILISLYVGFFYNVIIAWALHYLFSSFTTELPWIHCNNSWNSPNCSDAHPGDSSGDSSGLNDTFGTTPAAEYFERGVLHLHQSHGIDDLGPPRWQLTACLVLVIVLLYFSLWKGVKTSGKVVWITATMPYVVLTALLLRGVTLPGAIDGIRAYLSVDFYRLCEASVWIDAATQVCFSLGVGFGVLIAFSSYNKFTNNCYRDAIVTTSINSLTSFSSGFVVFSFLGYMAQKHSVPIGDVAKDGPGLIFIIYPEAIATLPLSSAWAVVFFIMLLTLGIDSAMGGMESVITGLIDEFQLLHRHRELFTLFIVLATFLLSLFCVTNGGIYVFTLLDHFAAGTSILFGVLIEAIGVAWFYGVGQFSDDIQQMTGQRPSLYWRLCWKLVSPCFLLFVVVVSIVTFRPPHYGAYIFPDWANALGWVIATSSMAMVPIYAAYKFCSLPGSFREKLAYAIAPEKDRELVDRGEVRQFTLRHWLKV
Experimental: This assay was used to determine the affinity of ligands for the dopamine transporter by competition with [^3H]-Vanoxerine.
HEK-293 cells (Tatsumi et al., Eur. J. Pharmacol. 1997, 30, 249-258) stably expressing recombinant hDAT were maintained with media (DMEM hi glucose with 10% FBS, 300 μg/ml G418 and 2 mM L-Glutamine) and incubated at 37° C. with 5% CO2. Cells were plated four hours prior to experiment by placing approximately 30,000 cells per well (in PBS) on white, opaque Cell-Tak coated 96 well plates. Extra buffer was apriated from the cell plates using an ELx405 plate washer.
^3[H] vanoxerine (GBR 12909) radioligand, specific activity approximately 59 Ci/mmol, stock concentration, 400 nM, and 50 mM Tris-HCl, 300 mM NaCl, (pH 7.4) buffers were used for Scintillation Proximity Assay IC50/Ki determination. […]
The % inhibition was calculated for each compound tested [(Compound CPM at maximum concentration-Non-Specific CPM)/Total CPM*100]. […]
as §2

T1 sequence (P31645 whole entry): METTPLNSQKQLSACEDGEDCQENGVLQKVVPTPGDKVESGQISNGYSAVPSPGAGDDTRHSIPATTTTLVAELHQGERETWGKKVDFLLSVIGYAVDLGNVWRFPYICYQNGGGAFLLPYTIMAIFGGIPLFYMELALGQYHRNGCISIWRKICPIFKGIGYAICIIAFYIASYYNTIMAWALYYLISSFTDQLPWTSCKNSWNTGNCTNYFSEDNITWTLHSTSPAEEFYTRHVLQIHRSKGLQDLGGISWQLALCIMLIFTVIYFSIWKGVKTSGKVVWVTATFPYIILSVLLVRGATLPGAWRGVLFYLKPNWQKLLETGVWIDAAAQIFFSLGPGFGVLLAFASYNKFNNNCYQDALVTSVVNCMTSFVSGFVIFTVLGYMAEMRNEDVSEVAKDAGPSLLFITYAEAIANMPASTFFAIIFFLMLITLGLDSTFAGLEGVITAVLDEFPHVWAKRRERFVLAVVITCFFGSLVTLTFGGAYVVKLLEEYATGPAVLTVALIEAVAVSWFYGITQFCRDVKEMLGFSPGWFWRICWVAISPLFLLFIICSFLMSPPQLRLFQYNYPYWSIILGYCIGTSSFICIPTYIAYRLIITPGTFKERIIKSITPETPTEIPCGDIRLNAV

## Fc1cccc(CN(c2ccc3[nH]ncc3c2)C2CCNCC2)c1 [Compound 53, (3-Fluoro-benzyl)-(1H-indazol-5-yl)-piperidin-4-yl-amine]
[1]
  Ki: ~0.316 nM

## COc1cccc(CN(c2ccc3[nH]ncc3c2)C2CCNCC2)c1 [Compound 54, (1H-Indazol-5-yl)-(3-methoxy-benzyl)-piperidin-4-yl-amine]
[2]
  Ki: ~1.58 nM

## NS(=O)(=O)c1cccc(CN(c2ccc3[nH]ccc3c2)C2CCNCC2)c1 [Compound 69, 3-{[(1H-Indol-5-yl)-piperidin-4-yl-amino]-methyl}-benzenesulfonamide]
[3]
  Ki: ~10 nM

Source: US8093285B2, “Aminopiperidinyl derivatives and uses thereof” (Roche Palo Alto LLC, priority 2008, dated 2012)
